Measured values reported in patent US9290777B2, “Putative cytokinin receptor and methods for use thereof” (NATIONAL UNIVERSITY OF SINGAPORE, priority 2007, dated 2016).

System: ARR5
Experiment: qRT-PCR of cytokinin responsive gene after BA pulse, fold change vs untreated wild type
Type: cell-based, Arabidopsis thaliana

c1ccc(CNc2ncnc3nc[nH]c23)cc1 [benzyladenine]
ARR5 fold change (BA 0.01 μM, 5 min, AS1, ↑ up): 4.33↑ | ARR5 fold change (BA 0.01 μM, 5 min, AS8, ↑ up): 6.12↑ | ARR5 fold change (BA 0.01 μM, 5 min, AS21, ↑ up): 8.2↑ | ARR5 fold change (BA 0.01 μM, 5 min, OE1, ↓ down): 4.51↓ | ARR5 fold change (BA 0.01 μM, 5 min, OE12, ↓ down): 5.87↓ | ARR5 fold change (BA 0.01 μM, 5 min, OE18, ↓ down): 7.33↓ | ARR5 fold change (BA 0.01 μM, 5 min, Wild type, ↑ up): 3.55↑ | ARR5 fold change (BA 0.01 μM, 15 min, AS1, ↑ up): 4.77↑ | ARR5 fold change (BA 0.01 μM, 15 min, AS8, ↑ up): 6.68↑ | ARR5 fold change (BA 0.01 μM, 15 min, AS21, ↑ up): 8.58↑ | ARR5 fold change (BA 0.01 μM, 15 min, OE1, ↓ down): 4.33↓ | ARR5 fold change (BA 0.01 μM, 15 min, OE12, ↓ down): 5.55↓ | ARR5 fold change (BA 0.01 μM, 15 min, OE18, ↓ down): 7.03↓ | ARR5 fold change (BA 0.01 μM, 15 min, Wild type, ↑ up): 3.64↑ | ARR5 fold change (BA 0.01 μM, 30 min, AS1, ↑ up): 5.01↑ | ARR5 fold change (BA 0.01 μM, 30 min, AS8, ↑ up): 6.82↑ | ARR5 fold change (BA 0.01 μM, 30 min, AS21, ↑ up): 8.79↑ | ARR5 fold change (BA 0.01 μM, 30 min, OE1, ↓ down): 4.11↓ | ARR5 fold change (BA 0.01 μM, 30 min, OE12, ↓ down): 5.21↓ | ARR5 fold change (BA 0.01 μM, 30 min, OE18, ↓ down): 6.91↓ | ARR5 fold change (BA 0.01 μM, 30 min, Wild type, ↑ up): 4.11↑ | ARR5 fold change (BA 0.01 μM, 1 h, AS1, ↑ up): 5.11↑ | ARR5 fold change (BA 0.01 μM, 1 h, AS8, ↑ up): 7.16↑ | ARR5 fold change (BA 0.01 μM, 1 h, AS21, ↑ up): 9.15↑ | ARR5 fold change (BA 0.01 μM, 1 h, OE1, ↓ down): 3.91↓ | ARR5 fold change (BA 0.01 μM, 1 h, OE12, ↓ down): 4.96↓ | ARR5 fold change (BA 0.01 μM, 1 h, OE18, ↓ down): 6.63↓ | ARR5 fold change (BA 0.01 μM, 1 h, Wild type, ↑ up): 4.3↑ | ARR5 fold change (BA 0.1 μM, 5 min, AS1, ↑ up): 5.34↑ | ARR5 fold change (BA 0.1 μM, 5 min, AS8, ↑ up): 7.32↑ | ARR5 fold change (BA 0.1 μM, 5 min, AS21, ↑ up): 9.31↑ | ARR5 fold change (BA 0.1 μM, 5 min, OE1, ↓ down): 4.1↓ | ARR5 fold change (BA 0.1 μM, 5 min, OE12, ↓ down): 4.71↓ | ARR5 fold change (BA 0.1 μM, 5 min, OE18, ↓ down): 6.69↓ | ARR5 fold change (BA 0.1 μM, 5 min, Wild type, ↑ up): 4.66↑ | ARR5 fold change (BA 0.1 μM, 15 min, AS1, ↑ up): 5.59↑ | ARR5 fold change (BA 0.1 μM, 15 min, AS8, ↑ up): 7.49↑ | ARR5 fold change (BA 0.1 μM, 15 min, AS21, ↑ up): 9.46↑ | ARR5 fold change (BA 0.1 μM, 15 min, OE1, ↓ down): 4.04↓ | ARR5 fold change (BA 0.1 μM, 15 min, OE12, ↓ down): 4.63↓ | ARR5 fold change (BA 0.1 μM, 15 min, OE18, ↓ down): 6.51↓ | ARR5 fold change (BA 0.1 μM, 15 min, Wild type, ↑ up): 4.78↑ | ARR5 fold change (BA 0.1 μM, 30 min, AS1, ↑ up): 5.89↑ | ARR5 fold change (BA 0.1 μM, 30 min, AS8, ↑ up): 7.73↑ | ARR5 fold change (BA 0.1 μM, 30 min, AS21, ↑ up): 9.68↑ | ARR5 fold change (BA 0.1 μM, 30 min, OE1, ↓ down): 3.9↓ | ARR5 fold change (BA 0.1 μM, 30 min, OE12, ↓ down): 4.4↓ | ARR5 fold change (BA 0.1 μM, 30 min, OE18, ↓ down): 6.23↓ | ARR5 fold change (BA 0.1 μM, 30 min, Wild type, ↑ up): 4.95↑ | ARR5 fold change (BA 0.1 μM, 1 h, AS1, ↑ up): 6.07↑ | ARR5 fold change (BA 0.1 μM, 1 h, AS8, ↑ up): 8.04↑ | ARR5 fold change (BA 0.1 μM, 1 h, AS21, ↑ up): 9.97↑ | ARR5 fold change (BA 0.1 μM, 1 h, OE1, ↓ down): 3.67↓ | ARR5 fold change (BA 0.1 μM, 1 h, OE12, ↓ down): 4.01↓ | ARR5 fold change (BA 0.1 μM, 1 h, OE18, ↓ down): 6.01↓ | ARR5 fold change (BA 0.1 μM, 1 h, Wild type, ↑ up): 5.06↑ | ARR5 fold change (BA 1.0 μM, 5 min, AS1, ↑ up): 6.62↑ | ARR5 fold change (BA 1.0 μM, 5 min, AS8, ↑ up): 8.59↑ | ARR5 fold change (BA 1.0 μM, 5 min, AS21, ↑ up): 9.99↑ | ARR5 fold change (BA 1.0 μM, 5 min, OE1, ↓ down): 3.96↓ | ARR5 fold change (BA 1.0 μM, 5 min, OE12, ↓ down): 3.99↓ | ARR5 fold change (BA 1.0 μM, 5 min, OE18, ↓ down): 5.36↓ | ARR5 fold change (BA 1.0 μM, 5 min, Wild type, ↑ up): 5.21↑ | ARR5 fold change (BA 1.0 μM, 15 min, AS1, ↑ up): 6.88↑ | ARR5 fold change (BA 1.0 μM, 15 min, AS8, ↑ up): 8.93↑ | ARR5 fold change (BA 1.0 μM, 15 min, AS21, ↑ up): 10.12↑ | ARR5 fold change (BA 1.0 μM, 15 min, OE1, ↓ down): 3.71↓ | ARR5 fold change (BA 1.0 μM, 15 min, OE12, ↓ down): 3.46↓ | ARR5 fold change (BA 1.0 μM, 15 min, OE18, ↓ down): 5.21↓ | ARR5 fold change (BA 1.0 μM, 15 min, Wild type, ↑ up): 5.46↑ | ARR5 fold change (BA 1.0 μM, 30 min, AS1, ↑ up): 6.93↑ | ARR5 fold change (BA 1.0 μM, 30 min, AS8, ↑ up): 9.09↑ | ARR5 fold change (BA 1.0 μM, 30 min, AS21, ↑ up): 10.35↑ | ARR5 fold change (BA 1.0 μM, 30 min, OE1, ↓ down): 3.49↓ | ARR5 fold change (BA 1.0 μM, 30 min, OE12, ↓ down): 3.77↓ | ARR5 fold change (BA 1.0 μM, 30 min, OE18, ↓ down): 5.01↓ | ARR5 fold change (BA 1.0 μM, 30 min, Wild type, ↑ up): 5.79↑ | ARR5 fold change (BA 1.0 μM, 1 h, AS1, ↑ up): 7.31↑ | ARR5 fold change (BA 1.0 μM, 1 h, AS8, ↑ up): 9.17↑ | ARR5 fold change (BA 1.0 μM, 1 h, AS21, ↑ up): 10.76↑ | ARR5 fold change (BA 1.0 μM, 1 h, OE1, ↓ down): 3.21↓ | ARR5 fold change (BA 1.0 μM, 1 h, OE12, ↓ down): 3.52↓ | ARR5 fold change (BA 1.0 μM, 1 h, OE18, ↓ down): 4.72↓ | ARR5 fold change (BA 1.0 μM, 1 h, Wild type, ↑ up): 6.07↑ | ARR5 fold change (BA 5.0 μM, 5 min, AS1, ↑ up): 7.01↑ | ARR5 fold change (BA 5.0 μM, 5 min, AS8, ↑ up): 9.56↑ | ARR5 fold change (BA 5.0 μM, 5 min, AS21, ↑ up): 10.43↑ | ARR5 fold change (BA 5.0 μM, 5 min, OE1, ↓ down): 3.19↓ | ARR5 fold change (BA 5.0 μM, 5 min, OE12, ↓ down): 3.59↓ | ARR5 fold change (BA 5.0 μM, 5 min, OE18, ↓ down): 4.25↓ | ARR5 fold change (BA 5.0 μM, 5 min, Wild type, ↑ up): 6.72↑ | ARR5 fold change (BA 5.0 μM, 15 min, AS1, ↑ up): 7.31↑ | ARR5 fold change (BA 5.0 μM, 15 min, Wild type, ↑ up): 6.99↑ | ARR5 fold change (BA 5.0 μM, 1 h, AS1, ↑ up): 7.86↑ | ARR5 fold change (BA 5.0 μM, 1 h, AS8, ↑ up): 10.05↑ | ARR5 fold change (BA 5.0 μM, 1 h, AS21, ↑ up): 10.93↑ | ARR5 fold change (BA 5.0 μM, 1 h, OE1, ↓ down): 2.54↓ | ARR5 fold change (BA 5.0 μM, 1 h, OE12, ↓ down): 2.78↓ | ARR5 fold change (BA 5.0 μM, 1 h, OE18, ↓ down): 3.89↓ | ARR5 fold change (BA 5.0 μM, 1 h, Wild type, ↑ up): 7.24↑
